Data from ChEMBL document CHEMBL1150744, “Antifungal activity of Trillium grandiflorum constituents” (J Nat Prod, 1988).
Converted amounts (≈) assume the structure as drawn.

Legend:
[1] = tested on: Trichophyton mentagrophytes; experiment: Antifungal activity against Trichophyton mentagrophytes ATCC 9972 by twofold serial broth dilution assay; assay type: functional
Aspergillus flavus = experiment: Antifungal activity against Aspergillus flavus ATCC 9170 by twofold serial broth dilution assay; assay type: functional
Candida albicans [2] = experiment: Antifungal activity against Candida albicans NIH B311 after 24 hrs by […]; assay type: functional; conditions: NIH B311, 24 h
Cryptococcus neoformans = experiment: Antifungal activity against Cryptococcus neoformans ATCC 32264 by twofold serial broth dilution assay; assay type: functional
[3] = Toxicity in iv dosed ICR mouse assessed as morbidity and lethality after 14 days; assay type: organism-based; conditions: in vivo
Candida albicans [4] = experiment: Antifungal activity against Candida albicans ATCC 10231 by twofold serial broth dilution assay; assay type: functional
Candida albicans [5] = experiment: Antifungal activity against Candida albicans NIH B311 infected in ICR mouse assessed as reduction in number of recovered colony forming units at 0.5 mg/kg, ip administered after 7 hrs inoculation measured after 16 hrs; assay type: functional; parameters: scale not given: the % may be the effect or the level left; conditions: route intraperitoneal
Aspergillus fumigatus = experiment: Antifungal activity against Aspergillus fumigatus ATCC 26934 by twofold serial broth dilution assay; assay type: functional
Saccharomyces cerevisiae = experiment: Antifungal activity against Saccharomyces cerevisiae ATCC 9763 by twofold serial broth dilution assay; assay type: functional
Candida albicans [6] = experiment: Antifungal activity against Candida albicans WH-D by twofold serial broth dilution assay; assay type: functional
[7] = Toxicity in ip dosed ICR mouse assessed as morbidity and lethality after 14 days; assay type: organism-based; conditions: in vivo

| SMILES | MIC [1] | MIC (Aspergillus flavus) | MIC (Candida albicans [2]) | MIC (Cryptococcus neoformans) | LD50 at 336 h [3] | MIC (Candida albicans [4]) | Activity (Candida albicans [5]) | MIC (Aspergillus fumigatus) | MIC (Saccharomyces cerevisiae) | MIC (Candida albicans [6]) | LD50 at 336 h [7] |
| --- | --- | --- | --- | --- | --- | --- | --- | --- | --- | --- | --- |
| C[C@@H]1[C@H](O)[C@@H](C)/C=C/C=C/C=C/C=C/C=C/C=C/C=C/[C@H](O[C@@H]2O[C@H](C)[C@@H](O)[C@H](N)[C@@H]2O)C[C@@H]2O[C@](O)(C[C@@H](O)C[C@@H](O)[C@H](O)CC[C@@H](O)C[C@@H](O)CC(=O)O[C@H]1C)C[C@H](O)[C@H]2C(=O)O [AMPHOTERICIN B] | 50 µg/mL (≈ 54.1 µM) | 50 µg/mL (≈ 54.1 µM) | 0.39 µg/mL (≈ 0.422 µM) | 1.56 µg/mL (≈ 1.69 µM) | 1 mg/kg | 1.56 µg/mL (≈ 1.69 µM) | 97.5% | 100 µg/mL (≈ 108 µM) | 25 µg/mL (≈ 27.1 µM) | 0.78 µg/mL (≈ 0.844 µM) | – |
| C[C@@H]1CC[C@@]2(OC1)O[C@H]1C[C@H]3[C@@H]4CC=C5C[C@@H](O[C@@H]6O[C@H](CO)[C@@H](O[C@@H]7O[C@@H](C)[C@H](O)[C@@H](O)[C@H]7O)[C@H](O)[C@H]6O[C@@H]6O[C@@H](C)[C@H](O)[C@@H](O)[C@H]6O)CC[C@]5(C)[C@H]4CC[C@]3(C)[C@H]1[C@@H]2C [DIOSCIN] | 6.25 µg/mL (≈ 7.19 µM) | 100 µg/mL (≈ 115 µM) | 1.56 µg/mL (≈ 1.8 µM) | 25 µg/mL (≈ 28.8 µM) | 10 mg/kg | 3.12 µg/mL (≈ 3.59 µM) | – | 50 µg/mL (≈ 57.5 µM) | 25 µg/mL (≈ 28.8 µM) | 6.25 µg/mL (≈ 7.19 µM) | 38 mg/kg |
| C[C@@H]1CC[C@@]2(OC1)O[C@H]1C[C@H]3[C@@H]4CC=C5C[C@@H](O[C@@H]6O[C@H](CO)[C@@H](O[C@@H]7O[C@@H](C)[C@H](O[C@@H]8O[C@@H](C)[C@H](O)[C@@H](O)[C@H]8O)[C@@H](O)[C@H]7O)[C@H](O)[C@H]6O[C@@H]6O[C@@H](C)[C@H](O)[C@@H](O)[C@H]6O)CC[C@]5(C)[C@H]4CC[C@]3(C)[C@H]1[C@@H]2C [PENNOGENIN RAHAMNOSYL CHACOTRIOSIDE] | 3.12 µg/mL (≈ 3.07 µM) | 100 µg/mL (≈ 98.5 µM) | 6.25 µg/mL (≈ 6.16 µM) | 12.5 µg/mL (≈ 12.3 µM) | 5 mg/kg | 12.5 µg/mL (≈ 12.3 µM) | – | 100 µg/mL (≈ 98.5 µM) | 12.5 µg/mL (≈ 12.3 µM) | 12.5 µg/mL (≈ 12.3 µM) | 28 mg/kg |
